Test results published in the supplement of paper PMC10307832.

Tests used:
Test in all cases: relative viability (nuclei count vs DMSO), 5 days (fraction); higher = more cells survive
RERF-LC-KJ = tested on: RERF-LC-KJ
Method in brief: (§1)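 One day after seeding in 1536-well plates, lung cancer cell lines were dosed by pin tool. Dosing was either single-drug or a fixed anchor-drug dose plus five library-drug doses (not always all listed) in √10 steps. After 5 days, nuclei were stained in one fix-and-stain step and counted on 4× images, and relative viability is the nuclei count of treated wells over that of vehicle wells, given as the median of duplicate plates.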

NCI-H460 = tested on: NCI-H460
Method in brief: as §1

NCI-H647 = tested on: NCI-H647
Method in brief: as §1

NCI-H2342 = tested on: NCI-H2342
Method in brief: as §1

NCI-H1734 = tested on: NCI-H1734
Method in brief: as §1

HOP-62 = tested on: HOP-62
Method in brief: as §1

A-427 = tested on: A-427
Method in brief: as §1

LC-2-ad = tested on: LC-2-ad
Method in brief: as §1

NCI-H2347 = tested on: NCI-H2347
Method in brief: as §1

SW 1573 = tested on: SW 1573
Method in brief: as §1

NCI-H2228 = tested on: NCI-H2228
Method in brief: as §1

HCC-78 = tested on: HCC-78
Method in brief: as §1

NCI-H2126 = tested on: NCI-H2126
Method in brief: as §1

NCI-H1915 = tested on: NCI-H1915
Method in brief: as §1

SK-LU-1 = tested on: SK-LU-1
Method in brief: as §1

LXF-289 = tested on: LXF-289
Method in brief: as §1

HCC-15 = tested on: HCC-15
Method in brief: as §1

NCI-H1755 = tested on: NCI-H1755
Method in brief: as §1

NCI-H1975 = tested on: NCI-H1975
Method in brief: as §1

PC-3 [JPC-3] = tested on: PC-3 [JPC-3]
Method in brief: as §1

LOU-NH91 = tested on: LOU-NH91
Method in brief: as §1

NCI-H358 = tested on: NCI-H358
Method in brief: as §1

Question: Which relative viability (RERF-LC-KJ; first compound 0.04 µM) does the source give for Clc1ccc(Nc2nnc(Cc3ccncc3)c3ccccc23)cc1 [Vatalanib] + COc1cc2c(Oc3ccc(NC(=O)C4(C(=O)Nc5ccc(F)cc5)CC4)cc3F)ccnc2cc1OCCCN1CCOCC1 [Foretinib] (partner 0.25 µM) here?
Answer: 0.889

Question: What about the relative viability (RERF-LC-KJ; first compound 0.1265 µM) of the same compound?
Answer: 0.927

Question: And the relative viability (RERF-LC-KJ; first compound 0.4 µM)?
Answer: 0.925

Question: And the relative viability (RERF-LC-KJ; first compound 1.265 µM)?
Answer: 0.89

Question: What about the relative viability (RERF-LC-KJ; first compound 4 µM) of the same compound?
Answer: 0.766

Question: What about the relative viability (NCI-H460; first compound 0.04 µM) of the same compound?
Answer: 1.11

Question: What about the relative viability (NCI-H460; first compound 0.1265 µM) of the same compound?
Answer: 0.894

Question: What about the relative viability (NCI-H460; first compound 0.4 µM) of the same compound?
Answer: 0.93

Question: And the relative viability (NCI-H460; first compound 1.265 µM)?
Answer: 0.934

Question: And the relative viability (NCI-H460; first compound 4 µM)?
Answer: 1.06

Question: And the relative viability (NCI-H647; first compound 0.04 µM)?
Answer: 1.12

Question: And the relative viability (NCI-H647; first compound 0.1265 µM)?
Answer: 1.2

Question: And the relative viability (NCI-H647; first compound 0.4 µM)?
Answer: 1.28

Question: And the relative viability (NCI-H647; first compound 1.265 µM)?
Answer: 1.18

Question: What about the relative viability (NCI-H647; first compound 4 µM) of the same compound?
Answer: 1.1

Question: What about the relative viability (NCI-H2342; first compound 0.04 µM) of the same compound?
Answer: 1.08

Question: And the relative viability (NCI-H2342; first compound 0.1265 µM)?
Answer: 1.03

Question: And the relative viability (NCI-H2342; first compound 0.4 µM)?
Answer: 1.08

Question: And the relative viability (NCI-H2342; first compound 1.265 µM)?
Answer: 1.16

Question: What about the relative viability (NCI-H2342; first compound 4 µM) of the same compound?
Answer: 1.05

Question: What about the relative viability (NCI-H1734; first compound 0.04 µM) of the same compound?
Answer: 0.878

Question: And the relative viability (NCI-H1734; first compound 0.1265 µM)?
Answer: 0.833

Question: And the relative viability (NCI-H1734; first compound 0.4 µM)?
Answer: 0.912

Question: And the relative viability (NCI-H1734; first compound 1.265 µM)?
Answer: 0.736

Question: And the relative viability (NCI-H1734; first compound 4 µM)?
Answer: 0.782

Question: And the relative viability (HOP-62; first compound 0.04 µM)?
Answer: 1.16

Question: What about the relative viability (HOP-62; first compound 0.1265 µM) of the same compound?
Answer: 1.07

Question: And the relative viability (HOP-62; first compound 0.4 µM)?
Answer: 1.13

Question: What about the relative viability (HOP-62; first compound 1.265 µM) of the same compound?
Answer: 1.01

Question: And the relative viability (HOP-62; first compound 4 µM)?
Answer: 1.12

Question: What about the relative viability (A-427; first compound 0.04 µM) of the same compound?
Answer: 1.06

Question: And the relative viability (A-427; first compound 0.1265 µM)?
Answer: 0.993

Question: What about the relative viability (A-427; first compound 0.4 µM) of the same compound?
Answer: 1.14

Question: What about the relative viability (A-427; first compound 1.265 µM) of the same compound?
Answer: 0.993

Question: And the relative viability (A-427; first compound 4 µM)?
Answer: 1.11

Question: What about the relative viability (LC-2-ad; first compound 0.04 µM) of the same compound?
Answer: 0.999

Question: What about the relative viability (LC-2-ad; first compound 0.1265 µM) of the same compound?
Answer: 0.777

Question: What about the relative viability (LC-2-ad; first compound 1.265 µM) of the same compound?
Answer: 0.852

Question: And the relative viability (LC-2-ad; first compound 4 µM)?
Answer: 0.87

Question: And the relative viability (NCI-H2347; first compound 0.1265 µM)?
Answer: 0.676

Question: What about the relative viability (NCI-H2347; first compound 0.4 µM) of the same compound?
Answer: 0.656

Question: What about the relative viability (NCI-H2347; first compound 1.265 µM) of the same compound?
Answer: 1.05

Question: And the relative viability (NCI-H2347; first compound 4 µM)?
Answer: 0.785

Question: And the relative viability (SW 1573; first compound 0.04 µM)?
Answer: 0.997

Question: And the relative viability (SW 1573; first compound 0.1265 µM)?
Answer: 0.857

Question: And the relative viability (SW 1573; first compound 0.4 µM)?
Answer: 1.05

Question: What about the relative viability (SW 1573; first compound 1.265 µM) of the same compound?
Answer: 0.929

Question: And the relative viability (SW 1573; first compound 4 µM)?
Answer: 0.9

Question: What about the relative viability (NCI-H2228; first compound 0.04 µM) of the same compound?
Answer: 0.941

Question: What about the relative viability (NCI-H2228; first compound 0.1265 µM) of the same compound?
Answer: 0.928

Question: What about the relative viability (NCI-H2228; first compound 0.4 µM) of the same compound?
Answer: 0.968

Question: What about the relative viability (NCI-H2228; first compound 1.265 µM) of the same compound?
Answer: 0.946

Question: And the relative viability (NCI-H2228; first compound 4 µM)?
Answer: 0.778

Question: What about the relative viability (HCC-78; first compound 0.04 µM) of the same compound?
Answer: 0.531

Question: And the relative viability (HCC-78; first compound 0.1265 µM)?
Answer: 0.551

Question: And the relative viability (HCC-78; first compound 0.4 µM)?
Answer: 0.535

Question: And the relative viability (HCC-78; first compound 1.265 µM)?
Answer: 0.503

Question: What about the relative viability (HCC-78; first compound 4 µM) of the same compound?
Answer: 0.47

Question: And the relative viability (NCI-H2126; first compound 0.04 µM)?
Answer: 1.15

Question: And the relative viability (NCI-H2126; first compound 0.1265 µM)?
Answer: 1.23

Question: What about the relative viability (NCI-H2126; first compound 0.4 µM) of the same compound?
Answer: 1.25

Question: And the relative viability (NCI-H2126; first compound 1.265 µM)?
Answer: 1.1

Question: What about the relative viability (NCI-H2126; first compound 4 µM) of the same compound?
Answer: 1.12

Question: What about the relative viability (NCI-H1915; first compound 0.04 µM) of the same compound?
Answer: 1.09

Question: What about the relative viability (NCI-H1915; first compound 0.1265 µM) of the same compound?
Answer: 1.04

Question: And the relative viability (NCI-H1915; first compound 0.4 µM)?
Answer: 1.11

Question: What about the relative viability (NCI-H1915; first compound 1.265 µM) of the same compound?
Answer: 1.05

Question: What about the relative viability (NCI-H1915; first compound 4 µM) of the same compound?
Answer: 1.13

Question: What about the relative viability (SK-LU-1; first compound 0.04 µM) of the same compound?
Answer: 0.807

Question: And the relative viability (SK-LU-1; first compound 0.1265 µM)?
Answer: 0.741

Question: And the relative viability (SK-LU-1; first compound 0.4 µM)?
Answer: 0.979

Question: What about the relative viability (SK-LU-1; first compound 1.265 µM) of the same compound?
Answer: 0.877

Question: And the relative viability (SK-LU-1; first compound 4 µM)?
Answer: 0.809

Question: And the relative viability (LXF-289; first compound 0.04 µM)?
Answer: 0.97

Question: What about the relative viability (LXF-289; first compound 0.1265 µM) of the same compound?
Answer: 0.966

Question: And the relative viability (LXF-289; first compound 0.4 µM)?
Answer: 0.98

Question: And the relative viability (LXF-289; first compound 1.265 µM)?
Answer: 0.945

Question: What about the relative viability (LXF-289; first compound 4 µM) of the same compound?
Answer: 0.931

Question: What about the relative viability (HCC-15; first compound 0.04 µM) of the same compound?
Answer: 1

Question: What about the relative viability (HCC-15; first compound 0.1265 µM) of the same compound?
Answer: 1.06

Question: And the relative viability (HCC-15; first compound 0.4 µM)?
Answer: 1.02

Question: What about the relative viability (HCC-15; first compound 1.265 µM) of the same compound?
Answer: 0.996

Question: What about the relative viability (HCC-15; first compound 4 µM) of the same compound?
Answer: 1.03

Question: What about the relative viability (NCI-H1755; first compound 0.04 µM) of the same compound?
Answer: 0.88

Question: And the relative viability (NCI-H1755; first compound 0.1265 µM)?
Answer: 0.964

Question: And the relative viability (NCI-H1755; first compound 0.4 µM)?
Answer: 0.954

Question: And the relative viability (NCI-H1755; first compound 1.265 µM)?
Answer: 0.905

Question: What about the relative viability (NCI-H1755; first compound 4 µM) of the same compound?
Answer: 0.846

Question: What about the relative viability (NCI-H1975; first compound 0.04 µM) of the same compound?
Answer: 0.968

Question: What about the relative viability (NCI-H1975; first compound 0.1265 µM) of the same compound?
Answer: 0.885

Question: What about the relative viability (NCI-H1975; first compound 0.4 µM) of the same compound?
Answer: 0.953

Question: And the relative viability (NCI-H1975; first compound 1.265 µM)?
Answer: 0.866

Question: What about the relative viability (NCI-H1975; first compound 4 µM) of the same compound?
Answer: 0.832

Question: What about the relative viability (PC-3 [JPC-3]; first compound 0.04 µM) of the same compound?
Answer: 1.05

Question: And the relative viability (PC-3 [JPC-3]; first compound 0.1265 µM)?
Answer: 0.977

Question: What about the relative viability (PC-3 [JPC-3]; first compound 0.4 µM) of the same compound?
Answer: 1.05

Question: What about the relative viability (PC-3 [JPC-3]; first compound 1.265 µM) of the same compound?
Answer: 0.987

Question: And the relative viability (PC-3 [JPC-3]; first compound 4 µM)?
Answer: 1.02

Question: And the relative viability (LOU-NH91; first compound 0.04 µM)?
Answer: 0.887

Question: And the relative viability (LOU-NH91; first compound 0.1265 µM)?
Answer: 0.956

Question: What about the relative viability (LOU-NH91; first compound 1.265 µM) of the same compound?
Answer: 0.937

Question: And the relative viability (LOU-NH91; first compound 4 µM)?
Answer: 0.91

Question: What about the relative viability (NCI-H358; first compound 0.04 µM) of the same compound?
Answer: 1.15

Question: And the relative viability (NCI-H358; first compound 0.1265 µM)?
Answer: 0.568

Question: And the relative viability (NCI-H358; first compound 0.4 µM)?
Answer: 0.533

Question: What about the relative viability (NCI-H358; first compound 1.265 µM) of the same compound?
Answer: 0.718

Question: And the relative viability (NCI-H358; first compound 4 µM)?
Answer: 0.621
